Test results reported in patent US20110224079A1, “SPIROHETEROCYCLIC N-OXYAMIDES AS PESTICIDES” (SYNGENTA CROP PROTECTION LLC, priority 2008, published 2011).

Experiments:
[1] = system: Plutella xylostella (diamond back moth); experiment: Example B5: activity against Plutella xylostella, artificial diet in microtiter plate (larvicide, preventive); type: in vivo; conditions: 120 h, L2 larvae, 5 days, read-out: activity (larval mortality, antifeedant, growth regulation)
Description: Activity Against Plutella xylostella (Diamond Back Moth)
(Larvicide, Feeding/Residual Contact Activity, Preventive)
24-well microtiter plate (MTP) with artificial diet is treated with test solutions by pipetting. After drying, the MTP's are infested with larvae (L2)(10-15 per well). After an incubation period of 5 days, samples are checked for larval mortality, antifeedant and growth regulation.

[2] = system: Bemisia tabaci (tobacco white fly); experiment: Example B7: activity against Bemisia tabaci, sprayed bean plants (larvicide, contact/feeding); type: in vivo; conditions: 504 h, bean plants with N-2 nymphs sprayed, three weeks, read-out: activity (efficacy, number of emerged adults)
Outline: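 After a 4-day egg-laying period and 7 further days, bean plants bearing hatched N-2 nymphs were sprayed with test solutions (2 replicates). Emerged adults were counted three weeks later; efficacy was derived by comparison with untreated samples.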

[3] = system: Aphis Craccivora (cowpea aphid); experiment: Example B11: translaminar activity against Aphis craccivora on French bean leaves; type: in vivo; conditions: 120 h, upper leaf side painted, aphids on lower side, 5 days
Description: Translaminar Activity Against Aphis Craccivora (Cowpea Aphid)
French bean leaves (Phaseolus vulgaris) are infested with about 20 mixed age individuals on the lower leaf side using clip cages. 1 day after the infestation, the upper side of the leaves is treated with the test solution by painting. 5 days later, samples are checked for mortality.

[4] = system: cowpea aphid (Aphis craccivora); experiment: Example B14: insecticide seed treatment of sugarbeet seeds, infestation with cowpea aphid; type: in vivo; conditions: 0.3 mg a.i./seed, infested after 14 days, counted 7 days later
Description: Insecticide Seed Treatment
Sugarbeet seeds are treated with test compounds at various rates (mg a.i./seed). The seeds are sown into pots filled with soil. After placing the seeds on the soil surface they are further covered with soil. Before and during the bioassays, the plants are grown under optimal greenhouse conditions. After 14 days, the plants are infested with cowpea aphid (Aphis craccivora) by placing one infested pea seedling containing approximately 150 aphids of a population of mixed developmental stages onto each plant. Seven days after infestation, the number of aphids is counted per plant. Each treatment group is replicated 10 times. Each replicate contains 1 plant.

[5] = system: Myzus persicae (green peach aphid); experiment: Example B17: activity against Myzus persicae on sprayed pepper plants (feeding/residual contact); type: in vivo; conditions: 144 h, infested pepper plants sprayed, 6 days
[6] = system: Myzus persicae (green peach aphid); experiment: Example B13: drench activity against Myzus persicae, pea seedlings in field soil; conditions: 168 h, read-out: drench activity (mortality)
[7] = system: Nilaparvata lugens (brown rice planthopper); experiment: Example B8: activity against Nilaparvata lugens, sprayed rice seedlings (larvicide, feeding/contact); conditions: in Oryza sativa, read-out: activity (mortality, growth regulation, effects on F1 generation)
[8] = system: Myzus persicae (green peach aphid); experiment: Example B2: activity against Myzus persicae, pea seedling roots in test solution (systemic/feeding, curative); conditions: 144 h, read-out: activity (mortality)
[9] = system: Myzus persicae (green peach aphid); experiment: Example B1: activity against Myzus persicae, sprayed sunflower leaf discs (feeding/residual contact, preventive); conditions: foliar, 144 h, read-out: activity (mortality)

`COCON1C(=O)C(c2cc(C)ccc2C)=C(O)C12CCN(OC)CC2` [P2.2, 3-(2,5-dimethyl-phenyl)-4-hydroxy-8-methoxy-1-methoxymethoxy-1,8-diaza-spiro[4.5]dec-3-en-2-one] showed a mortality at 400 ppm [1] greater than 80%, a pest or weed control at 200 ppm [2] greater than 80% and a mortality at 400 ppm [3] greater than 80%. The “efficacy in the reduction of aphids compared to the untreated control plants” value [4] was 60%, the mortality at 200 ppm [5] was no less than 80% and the mortality at 25 ppm [6] was greater than 80%. For the same compound, the mortality at 400 ppm [7] was greater than 80%, the mortality at 400 ppm [8] was greater than 80% and the mortality at 400 ppm [9] was greater than 80%.
